Measured values taken from PubChem BioAssay (NCI).
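Cultured in 96-well plates, cells were exposed to test compound for 48 hours across five concentrations. Here, GI50 denotes the concentration required for 50% inhibition of growth. TGI denotes the concentration required for complete inhibition of growth.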 Peptide text beside a SMILES is read from it. * marks the point of attachment. Boc = CC(C)(C)OC(=O)*

Assays:
Test in all cases: inhibition of tumour cell growth, NCI panel, 48 h
UACC-62 melanoma = tested on: UACC-62 melanoma
HS 578T breast = tested on: HS 578T breast
SK-MEL-28 melanoma = tested on: SK-MEL-28 melanoma
MDA-MB-231 breast = tested on: MDA-MB-231 breast
OVCAR-4 ovarian = tested on: OVCAR-4 ovarian
SK-MEL-5 melanoma = tested on: SK-MEL-5 melanoma
786-0 renal = tested on: 786-0 renal
HOP-92 NSCLC = tested on: HOP-92 NSCLC
CCRF-CEM leukemia = tested on: CCRF-CEM leukemia
A498 renal = tested on: A498 renal
UACC-257 melanoma = tested on: UACC-257 melanoma
U251 CNS = tested on: U251 CNS
HCC-2998 colon = tested on: HCC-2998 colon
NCI-H23 lung = tested on: NCI-H23 lung
HCT-116 colon = tested on: HCT-116 colon
HOP-62 NSCLC = tested on: HOP-62 NSCLC
COLO 205 colon = tested on: COLO 205 colon
NCI-H460 lung = tested on: NCI-H460 lung
MOLT-4 leukemia = tested on: MOLT-4 leukemia
LOX IMVI melanoma = tested on: LOX IMVI melanoma
HCT-15 colon = tested on: HCT-15 colon
SNB-75 CNS = tested on: SNB-75 CNS
IGROV1 ovarian = tested on: IGROV1 ovarian
OVCAR-8 ovarian = tested on: OVCAR-8 ovarian
A549 NSCLC = tested on: A549 NSCLC
SK-OV-3 ovarian = tested on: SK-OV-3 ovarian
NCI-H226 lung = tested on: NCI-H226 lung
HT29 colon = tested on: HT29 colon
DU-145 prostate = tested on: DU-145 prostate
RPMI-8226 leukemia = tested on: RPMI-8226 leukemia
KM12 colon = tested on: KM12 colon
M14 melanoma = tested on: M14 melanoma
OVCAR-3 ovarian = tested on: OVCAR-3 ovarian
ACHN renal = tested on: ACHN renal
OVCAR-5 ovarian = tested on: OVCAR-5 ovarian
MDA-MB-435 = tested on: MDA-MB-435
SW-620 colon = tested on: SW-620 colon
NCI/ADR-RES ovarian = tested on: NCI/ADR-RES ovarian
SR leukemia = tested on: SR leukemia
SN12C renal = tested on: SN12C renal
BT-549 breast = tested on: BT-549 breast
T-47D breast = tested on: T-47D breast
SF-268 CNS = tested on: SF-268 CNS
HL-60(TB) leukemia = tested on: HL-60(TB) leukemia
RXF 393 renal = tested on: RXF 393 renal
PC-3 prostate = tested on: PC-3 prostate
SNB-19 CNS = tested on: SNB-19 CNS
SK-MEL-2 melanoma = tested on: SK-MEL-2 melanoma
SF-539 CNS = tested on: SF-539 CNS
K-562 leukemia = tested on: K-562 leukemia
SF-295 CNS = tested on: SF-295 CNS
EKVX NSCLC = tested on: EKVX NSCLC
NCI-H522 lung = tested on: NCI-H522 lung
TK-10 renal = tested on: TK-10 renal
MCF7 breast = tested on: MCF7 breast
CAKI-1 renal = tested on: CAKI-1 renal
MALME-3M melanoma = tested on: MALME-3M melanoma

CC(C)C(NC(=O)OC(C)(C)C)C(=O)N1CCCC1C(=O)O (stereo not drawn) (Boc-Val-Pro-OH; configuration not given here)
GI50 (UACC-62 melanoma): 94.1 µg/mL
GI50 (HS 578T breast): 36.1 µg/mL

CC(C)(C)OC(=O)N1C(=O)C2CCCC21 (stereo not drawn)
TGI (SK-MEL-28 melanoma): > 100 µM
TGI (MDA-MB-231 breast): > 100 µM
TGI (OVCAR-4 ovarian): > 100 µM
TGI (SK-MEL-5 melanoma): > 100 µM
TGI (786-0 renal): > 100 µM
TGI (HOP-92 NSCLC): > 100 µM
TGI (CCRF-CEM leukemia): > 100 µM
TGI (A498 renal): > 100 µM
TGI (UACC-257 melanoma): > 100 µM
TGI (U251 CNS): > 100 µM
TGI (HCC-2998 colon): > 100 µM
TGI (NCI-H23 lung): > 100 µM
TGI (HCT-116 colon): > 100 µM
TGI (HOP-62 NSCLC): > 100 µM
TGI (COLO 205 colon): > 100 µM
TGI (NCI-H460 lung): > 100 µM
TGI (MOLT-4 leukemia): > 100 µM
TGI (LOX IMVI melanoma): > 100 µM
TGI (HCT-15 colon): > 100 µM
TGI (SNB-75 CNS): > 100 µM
TGI (IGROV1 ovarian): > 100 µM
TGI (OVCAR-8 ovarian): > 100 µM
TGI (A549 NSCLC): > 100 µM
TGI (SK-OV-3 ovarian): > 100 µM
TGI (NCI-H226 lung): > 100 µM
TGI (HT29 colon): > 100 µM
TGI (DU-145 prostate): > 100 µM
TGI (RPMI-8226 leukemia): > 100 µM
TGI (KM12 colon): > 100 µM
TGI (M14 melanoma): > 100 µM
TGI (OVCAR-3 ovarian): > 100 µM
TGI (UACC-62 melanoma): > 100 µM
TGI (HS 578T breast): > 100 µM
TGI (ACHN renal): > 100 µM
TGI (OVCAR-5 ovarian): > 100 µM
TGI (MDA-MB-435): > 100 µM
TGI (SW-620 colon): > 100 µM
TGI (NCI/ADR-RES ovarian): > 100 µM
TGI (SR leukemia): > 100 µM
TGI (SN12C renal): > 100 µM
TGI (BT-549 breast): > 100 µM
TGI (T-47D breast): > 100 µM
TGI (SF-268 CNS): > 100 µM
TGI (HL-60(TB) leukemia): > 100 µM
TGI (RXF 393 renal): > 100 µM
TGI (PC-3 prostate): > 100 µM
TGI (SNB-19 CNS): > 100 µM
TGI (SK-MEL-2 melanoma): > 100 µM

CC(=O)C1=C(C)N(Cc2ccccc2)C2(O)C=CC(=O)C3=C(O)c4ccccc4C(=O)C312 (stereo not drawn)
GI50 (SK-MEL-28 melanoma): 2.36 µM
TGI (SK-MEL-28 melanoma): 6.1 µM
GI50 (MDA-MB-231 breast): 2.1 µM
TGI (MDA-MB-231 breast): 5.97 µM
GI50 (OVCAR-4 ovarian): 4.84 µM
TGI (OVCAR-4 ovarian): 44.3 µM
GI50 (SK-MEL-5 melanoma): 3.63 µM
TGI (SK-MEL-5 melanoma): 12.5 µM
GI50 (SF-539 CNS): 2.91 µM
TGI (SF-539 CNS): 7.09 µM
GI50 (786-0 renal): 2.26 µM
TGI (786-0 renal): 4.26 µM
GI50 (HOP-92 NSCLC): 3.73 µM
TGI (HOP-92 NSCLC): 7.77 µM
GI50 (A498 renal): 22.7 µM
TGI (A498 renal): 38.1 µM
GI50 (UACC-257 melanoma): 5.77 µM
TGI (UACC-257 melanoma): 30.5 µM
GI50 (U251 CNS): 3.38 µM
TGI (U251 CNS): 10.2 µM
GI50 (HCC-2998 colon): 13 µM
TGI (HCC-2998 colon): 36.4 µM
GI50 (NCI-H23 lung): 7.53 µM
TGI (NCI-H23 lung): 24.7 µM
GI50 (HCT-116 colon): 1.99 µM
TGI (HCT-116 colon): 3.86 µM
GI50 (HOP-62 NSCLC): 13.5 µM
TGI (HOP-62 NSCLC): 34.3 µM
GI50 (COLO 205 colon): 2.38 µM
TGI (COLO 205 colon): 5.04 µM
GI50 (NCI-H460 lung): 7.24 µM
TGI (NCI-H460 lung): 41.3 µM
GI50 (MOLT-4 leukemia): 3.34 µM
TGI (MOLT-4 leukemia): > 100 µM
GI50 (K-562 leukemia): 8.68 µM
TGI (K-562 leukemia): > 100 µM
GI50 (SF-295 CNS): 12.5 µM
TGI (SF-295 CNS): 27.9 µM
GI50 (LOX IMVI melanoma): 1.97 µM
TGI (LOX IMVI melanoma): 4.39 µM
GI50 (HCT-15 colon): 1.81 µM
TGI (HCT-15 colon): 4.51 µM
GI50 (SNB-75 CNS): 4.88 µM
TGI (SNB-75 CNS): 25 µM
GI50 (IGROV1 ovarian): 6.2 µM
TGI (IGROV1 ovarian): > 100 µM
GI50 (OVCAR-8 ovarian): 6.25 µM
TGI (OVCAR-8 ovarian): 30 µM
GI50 (A549 NSCLC): 20.1 µM
TGI (A549 NSCLC): > 100 µM
GI50 (SK-OV-3 ovarian): 18.3 µM
TGI (SK-OV-3 ovarian): 42.4 µM
GI50 (NCI-H226 lung): 8.12 µM
TGI (NCI-H226 lung): 22.1 µM
GI50 (HT29 colon): 3.71 µM
TGI (HT29 colon): > 100 µM
GI50 (DU-145 prostate): 4.57 µM
TGI (DU-145 prostate): 19.7 µM
GI50 (EKVX NSCLC): 16.4 µM
TGI (EKVX NSCLC): 33.8 µM
GI50 (RPMI-8226 leukemia): 2.35 µM
TGI (RPMI-8226 leukemia): 6.38 µM
GI50 (KM12 colon): 9.05 µM
TGI (KM12 colon): 26 µM
GI50 (M14 melanoma): 3.18 µM
TGI (M14 melanoma): 9.03 µM
GI50 (NCI-H522 lung): 7.3 µM
TGI (NCI-H522 lung): > 100 µM
GI50 (TK-10 renal): 2.82 µM
TGI (TK-10 renal): 6.18 µM
GI50 (MCF7 breast): 3.8 µM
TGI (MCF7 breast): 26.2 µM
GI50 (OVCAR-3 ovarian): 1.42 µM
TGI (OVCAR-3 ovarian): 3.14 µM
GI50 (UACC-62 melanoma): 2.64 µM
TGI (UACC-62 melanoma): 7.64 µM
GI50 (HS 578T breast): 18.5 µM
TGI (HS 578T breast): 60 µM
GI50 (OVCAR-5 ovarian): 6.28 µM
TGI (OVCAR-5 ovarian): 25 µM
GI50 (MDA-MB-435): 2.26 µM
TGI (MDA-MB-435): 4.14 µM
GI50 (CAKI-1 renal): 2.47 µM
TGI (CAKI-1 renal): 6.37 µM
GI50 (SW-620 colon): 2.24 µM
TGI (SW-620 colon): 5.22 µM
GI50 (NCI/ADR-RES ovarian): 3.02 µM
TGI (NCI/ADR-RES ovarian): > 100 µM
GI50 (SN12C renal): 1.82 µM
TGI (SN12C renal): 3.6 µM
GI50 (BT-549 breast): 5.88 µM
TGI (BT-549 breast): 19.6 µM
GI50 (T-47D breast): 2.71 µM
TGI (T-47D breast): 7.97 µM
GI50 (SF-268 CNS): 10.4 µM
TGI (SF-268 CNS): 29.1 µM
GI50 (HL-60(TB) leukemia): > 100 µM
TGI (HL-60(TB) leukemia): > 100 µM
GI50 (RXF 393 renal): 3.27 µM
TGI (RXF 393 renal): 17.5 µM
GI50 (PC-3 prostate): 10.3 µM
TGI (PC-3 prostate): 31.2 µM
GI50 (SNB-19 CNS): 16 µM
TGI (SNB-19 CNS): 44.1 µM
GI50 (SK-MEL-2 melanoma): 20.8 µM
TGI (SK-MEL-2 melanoma): > 100 µM
GI50 (MALME-3M melanoma): 1.44 µM
TGI (MALME-3M melanoma): 2.97 µM
